Experimental data: patent publication US8507509B2, “Saturated and insaturated bi- or tricyclic aryloxyacetamine derivatives and their use as fungicides” (Syngenta Crop Protection LLC, priority 2007, dated 2013)

Tests used:
[1] = system: Botrytis cinerea; experiment: Botrytis cinerea (grey mould), bean leaf disk assay, preventive; format: in vivo; settings: foliar, 96 h, 200 ppm, bean leaf disks, assessed four days after inoculation, read-out: control of fungal infection, Botrytis cinerea
[2] = system: Septoria nodorum; experiment: Septoria nodorum (wheat glume blotch), wheat leaf segment assay, preventive; format: in vivo; settings: Parastagonospora nodorum, foliar, 96 h; 200 ppm; wheat leaf segments; assessed four days after inoculation; read-out: control of fungal infection, Septoria nodorum
[3] = system: Fusarium culmorum; experiment: Fusarium culmorum (root rot), liquid culture growth inhibition in nutrient broth; format: cell-based; settings: PDB broth, 24 C, inhibition of growth determined photometrically after 48 hrs, read-out: control of fungal infection, Fusarium culmorum
Summary of the method: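 Fusarium culmorum conidia from cryogenic storage were mixed into potato dextrose broth and added to compound pre-dispensed from DMSO (diluted in 0.025% Tween20). Incubated at 24 C in the dark; growth inhibition read photometrically after 48 hrs.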

[4] = system: Plasmopara viticola; experiment: Plasmopara viticola (downy mildew of grapevine), grapevine leaf disk assay, preventive; format: in vivo; settings: foliar, 168 h, 200 ppm, grapevine leaf disks, assessed seven days after inoculation, read-out: control of fungal infection, Plasmopara viticola
[5] = system: Puccinia recondita f.sp. tritici; experiment: Puccinia recondita f.sp. tritici (wheat brown rust), wheat leaf segment assay, preventive; format: in vivo; settings: foliar, 216 h, 200 ppm, wheat leaf segments, assessed nine days after inoculation, read-out: control of fungal infection, Puccinia recondite f.sp. tritici
[6] = system: Erysiphe graminis f.sp. tritici; experiment: Erysiphe graminis f.sp. tritici (wheat powdery mildew), wheat leaf segment assay, preventive; format: in vivo; settings: Blumeria graminis, foliar, 96 h; 200 ppm; wheat leaf segments; assessed four days after inoculation; read-out: control of fungal infection, Etysiphe graminis f.sp. tritici
[7] = system: Septoria tritici; experiment: Septoria tritici (leaf blotch), liquid culture growth inhibition in nutrient broth; format: cell-based; settings: Zymoseptoria tritici; 200 ppm; PDB broth, 24 C; inhibition of growth determined photometrically after 72 hrs; read-out: control of fungal infection, Septoria tritici
[8] = system: Phytophthora infestans; experiment: whole plant or invertebrate; format: in vivo; settings: in Solanum lycopersicum, foliar, 96 h, read-out: control of fungal infection, Phytophthora infestans
[9] = system: Pythium ultimum; experiment: Pythium ultimum (Damping off), liquid culture growth inhibition in potato dextrose broth; format: cell-based; settings: Globisporangium ultimum; 20 ppm; potato dextrose broth, 24° C.; inhibition of growth determined photometrically after 48 hours; read-out: control of fungal infection, Pythium ultimum

C#Cc1cnc2ccc(OC(SC)C(=O)NC(C)(C#N)C=NOC)cc2c1 (centres unmarked) [Compound No. 59, N-(1-Cyano-2-methoxyimino-1-methyl-ethyl)-2-(3-ethynyl-quinolin-6-yloxy)-2-methylsulfanyl-acetamide]
≥ 60%: pest or weed control at 200 ppm [1] | pest or weed control at 200 ppm [2] | inhibition of growth at 200 ppm [3] | pest or weed control at 200 ppm [4] | pest or weed control at 200 ppm [5] | pest or weed control at 200 ppm [6] | inhibition of growth at 200 ppm [7] | pest or weed control at 200 ppm [8]

C#CCOCC(C)(C=NOC)NC(=O)C(Oc1ccc2ncc(C#C)cc2c1)SC (centres unmarked) [Compound No. 62, 2-(3-Ethynyl-quinolin-6-yloxy)-N-(2-methoxyimino-1-methyl-1-prop-2-ynyloxymethyl-ethyl)-2-methylsulfanyl-acetamide]
≥ 60%: pest or weed control at 200 ppm [1] | pest or weed control at 200 ppm [2] | pest or weed control at 200 ppm [4] | pest or weed control at 200 ppm [5] | inhibition of growth at 20 ppm [9] | pest or weed control at 200 ppm [6] | inhibition of growth at 200 ppm [7] | pest or weed control at 200 ppm [8]

C#Cc1cnc2ccc(OC(SC)C(=O)NC3(C=NOC)CCC3)cc2c1 (centres unmarked) [Compound No. 78, 2-(3-ethynyl-quinolin-6-yloxy)-N-[1-(methoxyimino-methyl)-cyclobutyl]-2-methylsulfanyl-acetamide]
≥ 60%: pest or weed control at 200 ppm [2] | inhibition of growth at 200 ppm [3] | pest or weed control at 200 ppm [4] | pest or weed control at 200 ppm [5] | inhibition of growth at 20 ppm [9] | inhibition of growth at 200 ppm [7] | pest or weed control at 200 ppm [8]

CON=CC1(NC(=O)C(Oc2ccc3ncc(I)cc3c2)SC)CCC1 (centres unmarked) [Compound No. 79, 2-(3-Iodo-quinolin-6-yloxy)-N-[1-(methoxyimino-methyl)-cyclobutyl]-2-methylsulfanyl-acetamide]
≥ 60%: pest or weed control at 200 ppm [2] | inhibition of growth at 200 ppm [3] | pest or weed control at 200 ppm [4] | pest or weed control at 200 ppm [5] | inhibition of growth at 20 ppm [9] | pest or weed control at 200 ppm [6] | inhibition of growth at 200 ppm [7] | pest or weed control at 200 ppm [8]

C#Cc1cnc2ccc(OC(SC)C(=O)NC3(C=NO)CCC3)cc2c1 (centres unmarked) [Compound No. 80, 2-(3-Ethynyl-quinolin-6-yloxy)-N-[1-(hydroxyimino-methyl)-cyclobutyl]-2-methylsulfanyl-acetamide]
≥ 60%: pest or weed control at 200 ppm [2] | inhibition of growth at 200 ppm [3] | pest or weed control at 200 ppm [4] | pest or weed control at 200 ppm [5] | inhibition of growth at 20 ppm [9] | pest or weed control at 200 ppm [6] | inhibition of growth at 200 ppm [7] | pest or weed control at 200 ppm [8]

CON=CC(C)NC(=O)C(Oc1ccc2ncc(Br)cc2c1)SC (centres unmarked) [Compound No. 94, 2-(3-Bromo-quinolin-6-yloxy)-N-(2-methoxyimino-1-methyl-ethyl)-2-methylsulfanyl-acetamide]
≥ 60%: pest or weed control at 200 ppm [2] | inhibition of growth at 200 ppm [3] | pest or weed control at 200 ppm [4] | pest or weed control at 200 ppm [5] | inhibition of growth at 20 ppm [9] | pest or weed control at 200 ppm [6] | inhibition of growth at 200 ppm [7] | pest or weed control at 200 ppm [8]

CON=C(C)C(C)(C)NC(=O)C(Oc1ccc2ncc(Br)cc2c1)SC (centres unmarked) [Compound No. 111, 2-(3-Bromo-quinolin-6-yloxy)-N-{2-[(E or Z)-methoxyimino]-1,1-dimethyl-propyl}-2-methylsulfanyl-acetamide]
≥ 60%: pest or weed control at 200 ppm [2] | inhibition of growth at 200 ppm [3] | pest or weed control at 200 ppm [4] | pest or weed control at 200 ppm [5] | inhibition of growth at 20 ppm [9] | inhibition of growth at 200 ppm [7] | pest or weed control at 200 ppm [8]

C#Cc1cnc2cc(F)c(OC(CC)C(=O)NC(C)(C)C=NOC)cc2c1 (centres unmarked) [Compound No. 134, 2-(3-Ethynyl-7-fluoro-quinolin-6-yloxy)-N-(2-methoxyimino-1,1-dimethyl-ethyl)-butyramide]
≥ 60%: pest or weed control at 200 ppm [2] | inhibition of growth at 200 ppm [3] | pest or weed control at 200 ppm [4] | pest or weed control at 200 ppm [5] | inhibition of growth at 20 ppm [9] | pest or weed control at 200 ppm [6] | inhibition of growth at 200 ppm [7] | pest or weed control at 200 ppm [8]

C#Cc1cnc2c(C)cc(OC(CC)C(=O)NC(C)(C)C=NO)cc2c1 (centres unmarked) [Compound No. 139, 2-(3-Ethynyl-8-methyl-quinolin-6-yloxy)-N-(2-hydroxyimino-1,1-dimethyl-ethyl)-butyramide]
≥ 60%: pest or weed control at 200 ppm [2] | inhibition of growth at 200 ppm [3] | pest or weed control at 200 ppm [4] | pest or weed control at 200 ppm [5] | inhibition of growth at 20 ppm [9] | pest or weed control at 200 ppm [6] | inhibition of growth at 200 ppm [7] | pest or weed control at 200 ppm [8]

CCC(Oc1cc(Cl)c2ncc(Br)cc2c1)C(=O)NC(C)(C)C=NOC (centres unmarked) [Compound No. 146, 2-(3-Bromo-8-chloro-quinolin-6-yloxy)-N-(2-methoxyimino-1,1-dimethyl-ethyl)-butyramide]
≥ 60%: pest or weed control at 200 ppm [2] | inhibition of growth at 200 ppm [3] | pest or weed control at 200 ppm [4] | pest or weed control at 200 ppm [5] | inhibition of growth at 20 ppm [9] | pest or weed control at 200 ppm [6] | inhibition of growth at 200 ppm [7] | pest or weed control at 200 ppm [8]

C#Cc1cnc2ccc(OC(CC)C(=O)NC(C)(C)C=NO)cc2c1 (centres unmarked) [Compound No. 147, 2-(3-Ethynyl-quinolin-6-yloxy)-N-(2-hydroxyimino-1,1-dimethyl-ethyl)-butyramide]
≥ 60%: pest or weed control at 200 ppm [2] | inhibition of growth at 200 ppm [3] | pest or weed control at 200 ppm [4] | pest or weed control at 200 ppm [5] | inhibition of growth at 20 ppm [9] | pest or weed control at 200 ppm [6] | inhibition of growth at 200 ppm [7] | pest or weed control at 200 ppm [8]

C#Cc1cnc2ccc(OC(CC)C(=O)NC(C)(C)C=NOCC)cc2c1 (centres unmarked) [Compound No. 148, N-(2-Ethoxyimino-1,1-dimethyl-ethyl)-2-(3-ethynyl-quinolin-6-yloxy)-butyramide]
≥ 60%: pest or weed control at 200 ppm [2] | inhibition of growth at 200 ppm [3] | pest or weed control at 200 ppm [4] | pest or weed control at 200 ppm [5] | inhibition of growth at 20 ppm [9] | pest or weed control at 200 ppm [6] | inhibition of growth at 200 ppm [7] | pest or weed control at 200 ppm [8]

C#Cc1cnc2ccc(OC(CC)C(=O)NC(C)(C)C=NOCC=C)cc2c1 (centres unmarked) [Compound No. 149, N-(2-Allyloxyimino-1,1-dimethyl-ethyl)-2-(3-ethynyl-quinolin-6-yloxy)-butyramide]
≥ 60%: pest or weed control at 200 ppm [1] | inhibition of growth at 200 ppm [3] | pest or weed control at 200 ppm [5] | inhibition of growth at 20 ppm [9] | pest or weed control at 200 ppm [6] | inhibition of growth at 200 ppm [7]

CCC(Oc1ccc2ncc(I)cc2c1)C(=O)NC(C)(C)C=NOCCF (centres unmarked) [Compound No. 155, N-[2-(2-Fluoro-ethoxyimino)-1,1-dimethyl-ethyl]-2-(3-iodo-quinolin-6-yloxy)-butyramide]
≥ 60%: pest or weed control at 200 ppm [2] | inhibition of growth at 200 ppm [3] | pest or weed control at 200 ppm [4] | pest or weed control at 200 ppm [5] | pest or weed control at 200 ppm [6] | inhibition of growth at 200 ppm [7] | pest or weed control at 200 ppm [8]
